Experimental data published in patent publication US20250381216A1, “PROPHYLACTIC DRUG AND THERAPEUTIC DRUG FOR DIABETES-ASSOCIATED DEMENTIA” (priority 2022, published 2025).

Key:
[1] = system: diabetes-associated dementia model (STZ injected into the cerebral ventricles of mice); experiment: Morris water maze training test (spatial learning) in mice given streptozotocin intracerebroventricularly; type: in vivo, C57BL/6 mice
From the text: (§1) Male C57BL/6 mice (20-22 g), 6 weeks old, were purchased from Japan SLC, Inc., and acclimated for one week. All mice (3-5 mice per cage) were maintained under specific pathogen-free conditions with a 12-hour light/dark cycle in a temperature and humidity-controlled room, with free access to food and water. Mouse diet (D12450B) was purchased from Research Diets, Inc. After the experiment, mice were anesthetized with 4% isoflurane vapor using a simple inhalation anesthesia device (NARCOBIT-E, Natsume Seisakusho Co., Ltd.) and euthanized by cardiac puncture for whole blood collection.
(§2) LPS (Pantoea agglomerans LPS mac0001, Macrophi Inc.), prepared and purified according to the fermentation culture method (PTL 2) developed by Soma et al., was used. LPS was administered orally by dissolving LPS in drinking water (sterilized distilled water) at a dose of 1 mg/kg body weight/day. The LPS dosage was based on previous studies (NPL 8, 9). Drinking water was replaced weekly, and LPS concentration was adjusted according to average body weight and water intake. The LPS used is a substance present in the environment, consumed to some extent in daily life, and has also been added to food and cosmetics. LPS, when orally fed, enhances the functionality of phagocytes (macrophages) in the peritoneal cavity and brain (NPL 8, 9). Activated phagocytes have the function of repairing damaged tissues in the body. LPS may be derived from plant symbiotic bacteria with food experience, such as Pantoea, Enterobacter, Xanthomonas, Acetobacteraceae, and Zymomonas, but the specific strain is not limited as long as it is LPS.
We used a method of directly administering STZ into the cerebral ventricles as a model of the diabetes-associated dementia that causes spatial memory deterioration without increasing blood glucose levels (NPL 7). STZ was purchased from Sigma-Aldrich Co. LLC. After anesthetizing with 4% isoflurane using a stereotaxic apparatus SR-5M-HT (Narishige Co., Ltd.), STZ (2.0 mg/mouse, dissolved in 5 μl saline) was injected singly into the right lateral ventricle using a microinjector IMS-20 and micromanipulator SMM-100 (Narishige Co., Ltd.). The stereotaxic coordinates were +0.3 mm anterior, +1.0 mm lateral (right), and +2.5 mm ventral from the intersection of the sagittal and coronal sutures. After suturing the skin, an appropriate amount of antibiotic ointment (20 mg/g chloramphenicol, 5 mg/g fradiomycin, 100,000 U/g nystatin, Daiichi Sankyo Healthcare Co., Ltd.) was applied to the wound. For non-STZ control mice, 5 μl of saline was injected into the right lateral ventricle. After surgery, mice were monitored daily for pain/discomfort and infection according to guidelines. 5 μL of 5% trypan blue (Nacalai Tesque, Inc.) was administered intracerebroventricularly to confirm proper needle placement.
For the prevention experiment of LPS oral administration against the diabetes-associated dementia, mice were given free access to LPS in drinking water (1 mg/kg body weight/day for 33 days until the end of the test) from one week before STZ administration until the end of the experiment. Cognitive assessment tests (Morris water maze test) were conducted 3 weeks after STZ administration (4 weeks after starting LPS oral intake). 17-19 mice were used for each group.
For the treatment experiment of LPS oral administration against the diabetes-associated dementia, cognitive assessment tests (Morris water maze test) were conducted 12 days after STZ administration to confirm cognitive function decline. From 20 days after STZ administration, mice were given free access to LPS in drinking water (1 mg/kg body weight/day for 25 days until the end of the test). Cognitive assessment tests (Morris water maze test) were conducted 40 days after STZ administration (day 20 of LPS oral intake).
The Morris water maze test consists of tests evaluating spatial learning ability (training test) and spatial memory ability (probe test). […]

[2] = system: diabetes-associated dementia model (STZ injected into the cerebral ventricles of mice); experiment: Morris water maze probe test (spatial memory) in mice given streptozotocin intracerebroventricularly; type: in vivo, C57BL/6 mice; details: for Residence time in the quadrant where the platform was previously located: mean ± SE
From the text: as §1, §2
We used a method of directly administering STZ into the cerebral ventricles as a model of the diabetes-associated dementia that causes spatial memory deterioration without increasing blood glucose levels (NPL 7). STZ was purchased from Sigma-Aldrich Co. LLC. […] After surgery, mice were monitored daily for pain/discomfort and infection according to guidelines. […]

[3] = training test starting 12 days after icv STZ 2.0 mg/mouse, before LPS treatment, mean ± SE
[4] = treatment experiment, training test starting 40 days after icv STZ, LPS 1 mg/kg body weight/day in drinking water from day 20 after STZ

Q: Which results are given for CN(N=O)C(=O)N[C@H]1C(O)O[C@H](CO)[C@@H](O)[C@@H]1O (mixture of isomers) [STZ, streptozotocin]?
A: Spatial learning ability (platform travel time over 4 days of training, FIG. 1) ([1]; prevention experiment, LPS 1 mg/kg body weight/day in drinking water from one week before icv STZ, test three weeks after STZ): inhibited reduction in platform travel time compared to the Saline group; Travel time (time required to reach the platform), training day 1 [1, 3]: 55.1 ± 2.14 s; Travel time (time required to reach the platform), training day 2 [1, 3]: 43.8 ± 7.00 s; Travel time (time required to reach the platform), training day 3 [1, 3]: 40.4 ± 7.09 s; Travel time (time required to reach the platform), training day 4 [1, 3]: 33.3 ± 6.74 s; Travel time (time required to reach the platform), training day 1 [1, 4]: 44.42 ± 3.81 s; Travel time (time required to reach the platform), training day 2 [1, 4]: 37.25 ± 10.41 s; Travel time (time required to reach the platform), training day 3 [1, 4]: 27.83 ± 7.71 s; Travel time (time required to reach the platform), training day 4 [1, 4]: 35.75 ± 10.44 s; Spatial memory ability (residence time in the target quadrant, FIG. 2) ([2]; prevention experiment, LPS 1 mg/kg body weight/day in drinking water from one week before icv STZ, probe test the day after training): significantly shorter residence time in the target quadrant compared to the Saline group; Residence time in the quadrant where the platform was previously located ([2]; probe test 16 days after icv STZ 2.0 mg/mouse, before LPS treatment, 60-second test): 18.0 ± 2.83 s; Residence time in the quadrant where the platform was previously located ([2]; treatment experiment, probe test 44 days after icv STZ, LPS 1 mg/kg body weight/day in drinking water from day 20 after STZ): 24.1 ± 8.73 s
